For one experiment, the target named is T1, human 15-PGDH (Homo sapiens, UniProt P15428).
T1 construct: purchased R&D System 5660-DH
T1 sequence (P15428 1-266): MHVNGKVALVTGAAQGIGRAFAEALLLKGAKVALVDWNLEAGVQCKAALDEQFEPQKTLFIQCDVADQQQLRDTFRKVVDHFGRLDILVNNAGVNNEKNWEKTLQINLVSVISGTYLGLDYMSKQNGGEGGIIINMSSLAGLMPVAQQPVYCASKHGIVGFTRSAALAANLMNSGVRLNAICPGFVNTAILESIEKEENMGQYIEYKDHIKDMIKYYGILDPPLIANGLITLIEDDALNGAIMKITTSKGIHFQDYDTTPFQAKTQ
Briefly: Evaluation of 15-PGDH inhibitory activity (fluorescence enzyme assay, NAD+/PGE2). The class given is biochemical. The conditions noted are these: human 15-PGDH enzyme, fluorescence Vmax. As to the method:
15-PGDH inhibition activity of Example compounds was measured as follows. 6.7 ng of human 15-PGDH (R&D System# 5660-DH) enzyme (10 µL) was added to a black 96 well plate, 60 µL of buffer (50 mM Tris-HCl, pH 7.5, 0.01% Tween 20) was added, and 10 µL of 200 µM β-Nicotinamide adenine dinucleotide sodium salt (Sigma, Cat# N0632-5G) was added. 10 µL of (10x) compound solution in DMSO was added and reacted for 10 minutes at room temperature.

Another experiment concerns A549 cells. Put plainly: Measurement of PGE2-increasing activity in A549 cells (IL-1β stimulated, PGE2 quantified in supernatant). The conditions noted are these: Homo sapiens, 24 h; concentration of 1 µM of each compound; IL-1β treated A549 cells; read-out: Increased PGE2 production in A549 cells. Type of experiment: cell-based. In outline: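 PGE2 secreted into the supernatant was measured by immunoassay 24 h after treatment. Before treatment, A549 cells were cultured 24 h in 10% FBS F12K, washed, and placed in serum-free medium containing compound (DMSO 0.1% final) plus or minus IL-1β, incubated at 37 °C, 5% CO2.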

A word on the IC50: it is the concentration that gives 50% inhibition. Low readings indicate inhibition by little substance, high ones a need for much substance. For the molecule `O=C(Nc1ccncc1)c1cccc(-c2cccc3c(C(=O)N4CCCCC4)cnn23)c1` [Example 38, 3-(3-(piperidine-1-carbonyl)pyrazolo[1,5-a]pyridin-7-yl)-N-(pyridin-4-yl)benzamide], the IC50 against human 15-PGDH was no more than 0.1 µM. In addition, the fold induction at 1 µM in the experiment with A549 cells is greater than 1.5.

`O=C(c1ccc(-c2cccc3c(C(=O)N4CCCCC4)cnn23)cn1)N1CCNCC1` [Example 82, piperazin-1-yl(5-(3-(piperidine-1-carbonyl)pyrazolo[1,5-a]pyridin-7-yl)pyridin-2-yl)methanone] registered an IC50 against human 15-PGDH of no more than 0.1 µM. The fold induction at 1 µM in the experiment with A549 cells was less than 1.5.

In the case of `Cn1nc(N)c2cc(-c3cccc4c(C(=O)N5CCCCC5)cnn34)ccc21` [Example 261, [7-(3-amino-1-methyl-indazol-5-yl)pyrazolo[1,5-a]pyridin-3-yl]-(1-piperidyl)methanone], on human 15-PGDH, the IC50 was no more than 0.1 µM. Further, in the experiment on A549 cells, the fold induction at 1 µM is greater than 1.5.

In turn, `N#CCCNC(=O)c1cccc(-c2cccc3c(C(=O)N4CCCCC4)cnn23)c1` [Example 36, N-(2-cyanoethyl)-3-(3-(piperidine-1-carbonyl)pyrazolo[1,5-a]pyridin-7-yl)benzamide] had an IC50 against human 15-PGDH of no more than 0.1 µM. Also, the fold induction at 1 µM with A549 cells was greater than 1.5.

As for `O=C(Nc1cccc2c(C(=O)N3CCCCC3)cnn12)c1cncc(F)c1` [Example 241, 5-fluoro-N-[3-(piperidine-1-carbonyl)pyrazolo[1,5-a]pyridin-7-yl]pyridine-3-carboxamide], at human 15-PGDH, the IC50 was no more than 0.1 µM. In addition, the fold induction at 1 µM in the experiment with A549 cells was greater than 1.5.

`O=C(c1cnn2c(-c3ccc(O)c(Cl)c3)cccc12)N1CCCCC1` [Example 21]: at human 15-PGDH, the IC50 was no more than 0.1 µM. For the same molecule, the fold induction at 1 µM with A549 cells is greater than 1.5.

As for `O=C(Nc1cccc2c(C(=O)N3CCCCC3)cnn12)c1ccc(Cl)cc1` [Example 239, 4-chloro-N-[3-(piperidine-1-carbonyl)pyrazolo[1,5-a]pyridin-7-yl]benzamide], the IC50 against human 15-PGDH is no more than 0.1 µM. In the experiment on A549 cells, the fold induction at 1 µM was greater than 1.5.

Consider `Cn1cnc2cc(-c3cccc4c(C(=O)N5CCCCC5)cnn34)ccc2c1=O` [Example 251, 3-methyl-7-(3-(piperidine-1-carbonyl)pyrazolo[1,5-a]pyridin-7-yl)quinazolin-4(3H)-one], for which the IC50 against human 15-PGDH is no more than 0.1 µM. Further, the fold induction at 1 µM in the experiment on A549 cells was greater than 1.5.

Molecule `O=C(c1cnn2c(-c3ccc(N4CCOC4=O)nc3)cccc12)N1CCCC(F)(F)C1` [Example 384, 3-(5-(3-(3,3-difluoropiperidine-1-carbonyl)pyrazolo[1,5-a]pyridin-7-yl)pyridin-2-yl)oxazolidin-2-one] had an IC50 at human 15-PGDH of no more than 0.1 µM. Further, the fold induction at 1 µM in the experiment on A549 cells was greater than 1.5.

On human 15-PGDH, `O=C(c1cncc(-c2cccc3c(C(=O)N4CCCCC4)cnn23)c1)N1CC(F)C1` [Example 192, (3-fluoroazetidin-1-yl)(5-(3-(piperidine-1-carbonyl)pyrazolo[1,5-a]pyridin-7-yl)pyridin-3-yl)methanone] gave an IC50 of no more than 0.1 µM. The fold induction at 1 µM in the experiment on A549 cells is greater than 1.5.

As to `O=C(Cc1cccnc1)Nc1ncc(-c2cccc3c(C(=O)N4CCCCC4)cnn23)cc1F` [Example 362, N-(3-fluoro-5-(3-(piperidine-1-carbonyl)pyrazolo[1,5-a]pyridin-7-yl)pyridin-2-yl)-2-(pyridin-3-yl)acetamide], at human 15-PGDH, the IC50 is no more than 0.1 µM. In addition, the fold induction at 1 µM in the experiment on A549 cells is greater than 1.5.

With `O=C(Cc1cccnc1)Nc1cncc(-c2cccc3c(C(=O)N4CCCCC4)cnn23)c1` [Example 327, N-(5-(3-(piperidine-1-carbonyl)pyrazolo[1,5-a]pyridin-7-yl)pyridin-3-yl)-2-(pyridin-3-yl)acetamide], the IC50 at human 15-PGDH was no more than 0.1 µM. In addition, the fold induction at 1 µM with A549 cells was greater than 1.5.

With `O=C(c1cnn2c(-c3ccc(-c4n[nH]c(=S)o4)nc3)cccc12)N1CCCCC1` [Example 365, 1-piperidyl-[7-[6-(2-thioxo-3H-1,3,4-oxadiazol-5-yl)-3-pyridyl]pyrazolo[1,5-a]pyridin-3-yl]methanone], the IC50 against human 15-PGDH is no more than 0.1 µM. Besides, the fold induction at 1 µM in the experiment with A549 cells was greater than 1.5.

In the case of `O=C(c1cnn2c(-c3cncc(-c4noc(=O)[nH]4)c3)cccc12)N1CCCCC1` [Example 297, 3-(5-(3-(piperidine-1-carbonyl)pyrazolo[1,5-a]pyridin-7-yl)pyridin-3-yl)-1,2,4-oxadiazol-5(4H)-one], the IC50 on human 15-PGDH was no more than 0.1 µM. Further, the fold induction at 1 µM with A549 cells was less than 1.5.

Turning to `O=C(c1cnn2c(-c3cnc(-c4nnco4)c(F)c3)cccc12)N1CCCCC1` [Example 380, [7-[5-fluoro-6-(1,3,4-oxadiazol-2-yl)-3-pyridyl]pyrazolo[1,5-a]pyridin-3-yl]-(1-piperidyl)methanone], the IC50 on human 15-PGDH is no more than 0.1 µM. The fold induction at 1 µM with A549 cells is greater than 1.5.

Consider `Cc1nc(-c2cc(-c3cccc4c(C(=O)N5CCCCC5)cnn34)ccc2F)no1` [Example 276, [7-[4-fluoro-3-(5-methyl-1,2,4-oxadiazol-3-yl)phenyl]pyrazolo[1,5-a]pyridin-3-yl]-(1-piperidyl)methanone], for which the IC50 at human 15-PGDH was no more than 0.1 µM. Also, the fold induction at 1 µM in the experiment on A549 cells is greater than 1.5.

At human 15-PGDH, `O=C(c1cnn2c(-c3cc(F)cc(-c4ncon4)c3)cccc12)N1CCCCC1` [Example 341, (7-(3-fluoro-5-(1,2,4-oxadiazol-3-yl)phenyl)pyrazolo[1,5-a]pyridin-3-yl)(piperidin-1-yl)methanone] displayed an IC50 of no more than 0.1 µM. Further, the fold induction at 1 µM in the experiment on A549 cells was greater than 1.5.

In the case of `O=C1NCc2ccc(-c3cccc4c(C(=O)N5CCC(F)(F)CC5)cnn34)cc21` [Example 234, 6-(3-(4,4-difluoropiperidine-1-carbonyl)pyrazolo[1,5-a]pyridin-7-yl)isoindolin-1-one], the IC50 on human 15-PGDH was no more than 0.1 µM. Further, the fold induction at 1 µM in the experiment with A549 cells is greater than 1.5.

Regarding `O=C(c1cnn2c(-c3ccc(-n4cc([N+](=O)[O-])cn4)nc3)cccc12)N1CCCCC1` [Example 355, (7-(6-(4-nitro-1H-pyrazol-1-yl)pyridin-3-yl)pyrazolo[1,5-a]pyridin-3-yl)(piperidin-1-yl)methanone], the IC50 against human 15-PGDH was no more than 0.1 µM. Also, the fold induction at 1 µM in the experiment with A549 cells is greater than 1.5.

The record behind these values is EP4653437A2 (Innovo Therapeutics Inc., priority 2023, dated 2024).
